US7932384B2, “Reverse-turn mimetics and method relating thereto” (Choongwae Pharma Corporation, priority 2001, dated 2011)

Tests used:
[1] = system: caspase-3/7 in SW480 cells; test: Caspase-3/7 activity assay, SW480; assay type: cell-based; details: SW480, 25 μM, 24 hours, compared to CCD18Co cells
Description: SW480, HCT116, and CCD18Co cells were plated at 10^5 cells per well (96-well plates) for 24 hours prior to treatment. […] 24 hours post treatment, cells were lysed and caspase activity was measured using a caspase-3/7 activity kit (Apo-One Homogeneous caspase-3/7 assay, #G77905, Promega). Relative fluorescence units (RFU) were obtained by subtracting the unit values of the blank (control, without cells) from the experimental measured values.
Caspases are cysteine proteases that are generally activated in a given population of cells triggered by apoptotic stimuli.

[2] = system: Ubiquitin; test: Real time RT-PCR gene expression, Ubiquitin; assay type: cell-based; details: 25 μM, 24 hours; <0.5 significant decrease, >1.5 significant increase
Description: (§1) Real time reverse transcription-PCR analysis was performed according to the protocol provided with the SYBR Green PCR Master Mix Kit (Perkin Elmer Biosystems, Shelton, ST). […] The primers used for the RT-PCR reactions were [NT] and [NT].

[3] = system: survivin promoter; test: Survivin luciferase reporter in SW480 cells; assay type: cell-based; details: SW480 cells, various concentrations
[4] = system: cultured tumor cells; test: Cell death of cultured tumor cells; assay type: cell-based; details: 5.0 μM
[5] = system: surviving promoter; test: ChIP assay on SW480 cells (survivin promoter occupancy); assay type: cell-based; details: SW480, 25 μM, 18 hours
[6] = system: Antigen KI-67; test: Real time RT-PCR gene expression, Antigen KI-67; assay type: cell-based; details: 25 μM, 24 hours; <0.5 significant decrease, >1.5 significant increase
Description: as §1

[7] = system: PC-12 cells overexpressing PS-1/L286V; test: Neurite outgrowth and differentiation of PC-12 PS-1/L286V cells; assay type: cell-based, Rat; details: PS-1/L286V mutant PC-12 cells, 10 μM plus NGF
Description: Cell Differentiation. Cell culture dishes were pre-coated overnight with 0.25 mg/ml collagen (Cohesion, CA), 10 μg/ml Poly-L-Lysine (Sigma-Aldrich, St. Louis, Mo.) and 12 μg/ml Polyethyleneimine (ICN, La Mesa, Calif.). Cells were cultured on coated dishes at 15,000 cells/cm^2, and differentiated into a neuron-like phenotype by incubation in medium with reduced serum (1% fetal bovine serum), containing 50 ng/ml nerve growth factor (NGF) (Sigma-Aldrich) for 10 days. NGF-containing medium was changed every 2-3 days.
Differentiated PC-12/L286V cells were treated with increasing concentrations of this compound for 4 hours. Transfection was then initiated after this treatment period.
Quantitation of Neurite Outgrowth. Cell counts were taken from six randomly chosen microscopic fields (10×). […] The number of cells with such outgrowths was then expressed as a percentage of the total number of cells. Values obtained were from duplicates of three independent experiments.

[8] = system: surviving protein; test: Western blot analysis of survivin protein; assay type: cell-based; details: 10 μM or 25 μM
[9] = system: GADD-153; test: Real time RT-PCR gene expression, GADD-153; assay type: cell-based; details: 25 μM, 24 hours; <0.5 significant decrease, >1.5 significant increase
Description: as §1

[10] = system: HLAC; test: Real time RT-PCR gene expression, HLAC; assay type: cell-based; details: 25 μM, 24 hours; <0.5 significant decrease, >1.5 significant increase
Description: as §1

[11] = system: Ephrin B2 (EphB2) receptor; test: EphB2 receptor expression (immunofluorescence and RT-PCR) in PC-12 PS-1/L286V cells; assay type: cell-based, Rat; details: PS-1/L286V mutant PC-12 cells, 10 μM
Description: Immunofluorescence. Cells were plated at a density of 10,000 cells/cm^2 on sterile coated 22×22 mm coverslips in a 6-well culture plate. Differentiation was initiated, as previously described, for 10 days. The differentiated cells were then fixed in methanol for 15 minutes at −20° C. This is followed by a 15 minutes incubation with PBS+0.1% Triton X-100. The coverslips were incubated with antibodies raised against Ephrin B2 Receptor (Santa Cruz Biotechnology) and Gap-43 (Novus Biologicals) for 40 minutes at 37° C. After a series of washes with PBS-Triton X-100, secondary antibody conjugated to FITC (Jackson ImmunoResearch, Westgrove, Pa.) was applied. All slides images were acquired using a Nikon PCM2000 Laser Scanning Confocal Microscope mounted on a Nikon Eclipse E600 upright microscope (Nikon, Melville, N.Y.).
RT-PCR. To analyze the mRNA levels for Ephrin B2 (EphB2) receptor, total RNA was isolated using Trizol (Invitrogen-GIBCO-BRL, Baltimore, Md.) from differentiated cells. 2 μg RNA was reverse transcribed in a total volume of 20 μl with random hexamer (50 ng), and using the Superscript II reverse transcription system (Invitrogen-GIBCO-BRL), according to manufacturer's guidelines. PCR was carried out in a 50 μl volume containing 5 μl cDNA, 100 pmol primers, 100 μM dNTPs, 1×Taq buffer and 1.5 mM MgCl2. […]

[12] = system: surviving promoter; test: Survivin promoter luciferase reporter in wild type, CBP+/−, p300+/− 3T3 cells; assay type: cell-based; details: with or without Wnt1
Excerpt: A plasmid containing luciferase under the control of surviving promoter was constructed and transfected into wild type, CBP+/−, or p300+/−3T3 cells.

[13] = system: MIC-1; test: Real time RT-PCR gene expression, MIC-1; assay type: cell-based; details: 25 μM, 24 hours; <0.5 significant decrease, >1.5 significant increase
Description: as §1

[14] = system: caspase 3; test: Caspase 3 activity in cultured tumor cells; assay type: cell-based; details: 2.5 μM or 5.0 μM
[15] = system: cultured tumor cells; test: FACS analysis of cells in G0, cultured tumor cells; assay type: cell-based; details: 5 μM

SMILES: O=C1[C@H](Cc2ccc(O)cc2)N2C(=O)CCN(C(=O)NCc3ccccc3)[C@H]2CN1Cc1cccc2ccccc12 [Compound D]
- caspase-3/7 activity [1]: specifically and significantly activated the caspase-3/7 pathway
- Ratio (Treated/DMSO Control) Ubiquitin [2]: 0.98
- survivin expression (luciferase reporter) [3]: inhibit expression of surviving in SW480 cells
- cell death [4]: promote cell death
- association of CBP, β-catenin, Tcf4 and acetylated histone with the survivin promoter (ChIP) [5]: decreases the association of all these proteins with the surviving promoter
- Ratio (Treated/DMSO Control) Antigen KI-67 [6]: 0.45
- percentage of cells bearing neurites greater than twice the length of the cell body [7]: substantially increased the percentage of cells bearing neurites
- neurite outgrowth and differentiation ([7]; 10 days): essentially normal neurite outgrowth and differentiation
- amount of survivin protein (Western blot) [8]: reduced the amount of the surviving protein
- Ratio (Treated/DMSO Control) GADD-153 [9]: 7.00
- Ratio (Treated/DMSO Control) HLAC [10]: 1.01
- EphB2 message (RT-PCR) [11]: increased EphB2 message
- survivin gene expression (promoter luciferase) [12]: reduces expression of the surviving gene
- Ratio (Treated/DMSO Control) MIC-1 [13]: 7.0
- caspase 3 activity [14]: activated the caspase 3 activity
- number of cells in G0 (FACS) [15]: increase the number of cells in G0
